Assay results from the NIST ThermoML archive (doi:10.1021/je200811n).

Details: Hot wire method

F/C=C/C(F)(F)F [trans-1,3,3,3-tetrafluoropropene]
Details | thermal conductivity [W/m/K]
241.66 K, 603 kPa, Liquid | 0.09528
241.9 K, 10355 kPa, Liquid | 0.09967
241.91 K, 15386 kPa, Liquid | 0.1016
241.91 K, 20710 kPa, Liquid | 0.1039
241.94 K, 5328 kPa, Liquid | 0.0974
242 K, 586 kPa, Liquid | 0.09528
242.02 K, 10375 kPa, Liquid | 0.09936
242.03 K, 15367 kPa, Liquid | 0.1014
242.03 K, 20714 kPa, Liquid | 0.1037
242.06 K, 5339 kPa, Liquid | 0.097
242.11 K, 624 kPa, Liquid | 0.09501
242.35 K, 15378 kPa, Liquid | 0.1015
242.36 K, 10375 kPa, Liquid | 0.09945
242.36 K, 20709 kPa, Liquid | 0.1035
242.41 K, 5308 kPa, Liquid | 0.09704
242.47 K, 619 kPa, Liquid | 0.095
242.5 K, 10391 kPa, Liquid | 0.09913
242.5 K, 15372 kPa, Liquid | 0.1012
242.5 K, 20712 kPa, Liquid | 0.1034
242.56 K, 5308 kPa, Liquid | 0.09697
242.62 K, 642 kPa, Liquid | 0.09474
242.85 K, 10385 kPa, Liquid | 0.09922
242.85 K, 20701 kPa, Liquid | 0.1032
242.86 K, 15376 kPa, Liquid | 0.1011
242.92 K, 5304 kPa, Liquid | 0.09701
243 K, 622 kPa, Liquid | 0.09406
243.02 K, 15383 kPa, Liquid | 0.1009
243.02 K, 20695 kPa, Liquid | 0.1029
243.04 K, 10395 kPa, Liquid | 0.09886
243.1 K, 5316 kPa, Liquid | 0.09673
243.17 K, 615 kPa, Liquid | 0.09437
243.39 K, 20699 kPa, Liquid | 0.1032
243.4 K, 15385 kPa, Liquid | 0.1011
243.42 K, 10393 kPa, Liquid | 0.09892
243.49 K, 5327 kPa, Liquid | 0.09667
243.57 K, 643 kPa, Liquid | 0.09442
243.59 K, 20693 kPa, Liquid | 0.1027
243.6 K, 15397 kPa, Liquid | 0.1006
243.63 K, 10402 kPa, Liquid | 0.09852
243.71 K, 5317 kPa, Liquid | 0.09606
243.79 K, 649 kPa, Liquid | 0.09402
251.51 K, 42 kPa, Gas | 0.01026
251.52 K, 63 kPa, Gas | 0.01037
251.54 K, 86 kPa, Gas | 0.01039
251.74 K, 41 kPa, Gas | 0.01015
251.76 K, 63 kPa, Gas | 0.01019
251.77 K, 86 kPa, Gas | 0.01024
251.78 K, 87 kPa, Gas | 0.01029
251.97 K, 87 kPa, Gas | 0.01006
252 K, 41 kPa, Gas | 0.01005
252 K, 62 kPa, Gas | 0.01009
252 K, 88 kPa, Gas | 0.01003
252.01 K, 86 kPa, Gas | 0.01018
252.02 K, 63 kPa, Gas | 0.01
252.03 K, 87 kPa, Gas | 0.01018
252.31 K, 87 kPa, Gas | 0.01004
252.33 K, 88 kPa, Gas | 0.01011
252.36 K, 63 kPa, Gas | 0.01014
252.65 K, 86 kPa, Gas | 0.01016
252.67 K, 87 kPa, Gas | 0.01008
252.73 K, 63 kPa, Gas | 0.01019
253.03 K, 86 kPa, Gas | 0.01015
253.07 K, 87 kPa, Gas | 0.01011
253.13 K, 63 kPa, Gas | 0.01017
253.46 K, 86 kPa, Gas | 0.01017
253.48 K, 87 kPa, Gas | 0.01016
253.56 K, 62 kPa, Gas | 0.01022
261.25 K, 97 kPa, Gas | 0.0104
261.43 K, 21238 kPa, Liquid | 0.09804
261.44 K, 15456 kPa, Liquid | 0.09523
261.45 K, 97 kPa, Gas | 0.01036
261.47 K, 10413 kPa, Liquid | 0.09305
261.48 K, 489 kPa, Liquid | 0.08806
261.5 K, 80 kPa, Gas | 0.01109
261.5 K, 5306 kPa, Liquid | 0.09055
261.51 K, 21243 kPa, Liquid | 0.09768
261.52 K, 15449 kPa, Liquid | 0.09503
261.55 K, 97 kPa, Gas | 0.01112
261.55 K, 10410 kPa, Liquid | 0.09274
261.56 K, 107 kPa, Gas | 0.0112
261.56 K, 489 kPa, Liquid | 0.0878
261.57 K, 122 kPa, Gas | 0.01124
261.58 K, 5302 kPa, Liquid | 0.09026
261.64 K, 98 kPa, Gas | 0.01034
261.73 K, 80 kPa, Gas | 0.01096
261.77 K, 97 kPa, Gas | 0.01098
261.78 K, 105 kPa, Gas | 0.01104
261.79 K, 120 kPa, Gas | 0.01105
261.83 K, 21233 kPa, Liquid | 0.09783
261.85 K, 15453 kPa, Liquid | 0.09507
261.86 K, 98 kPa, Gas | 0.01037
261.88 K, 10404 kPa, Liquid | 0.09272
261.91 K, 489 kPa, Liquid | 0.08776
261.93 K, 5298 kPa, Liquid | 0.09023
261.93 K, 21227 kPa, Liquid | 0.09748
261.96 K, 80 kPa, Gas | 0.01086
261.96 K, 128 kPa, Gas | 0.01078
261.96 K, 15453 kPa, Liquid | 0.09468
261.97 K, 82 kPa, Gas | 0.01083
261.97 K, 112 kPa, Gas | 0.01074
261.98 K, 99 kPa, Gas | 0.01077
262 K, 98 kPa, Gas | 0.01084
262 K, 10412 kPa, Liquid | 0.0925
262.01 K, 97 kPa, Gas | 0.0109
262.02 K, 103 kPa, Gas | 0.01092
262.03 K, 118 kPa, Gas | 0.01094
262.03 K, 488 kPa, Liquid | 0.08756
262.04 K, 5301 kPa, Liquid | 0.08998
262.09 K, 98 kPa, Gas | 0.01037
262.29 K, 109 kPa, Gas | 0.01076
262.29 K, 21229 kPa, Liquid | 0.09748
262.3 K, 81 kPa, Gas | 0.01082
262.3 K, 98 kPa, Gas | 0.01082

Liquid
Details | thermal conductivity [W/m/K]
243.15 K | 0.09448
253.15 K | 0.09063
